Experimental data taken from patent publication US20260317340A1, “COMPOUNDS, COMPOSITIONS, AND METHODS OF TREATING DISORDERS” (Chengdu Anticancer Bioscience, Ltd., priority 2023, published 2026).
Read-outs that look alike come from different tables or passages of the source.

Key:
[1] = tested on: RPE-Neo or RPE-MYC or RPE-MYC expressing an EGFP-Histone 2B fusion protein; assay: Phenotypic screening assay: arrest in mitosis, change in DNA content (polyploidy), cell death; format: cell-based; details: 20 nM to 20 μM, 24, 48 or 72 hours
Summary of the method: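 RPE-Neo, RPE-MYC or RPE-MYC EGFP-H2B cells plated 18-24 h before treatment with compounds at 20 nM to 20 μM. Mitotic arrest or DNA-content change scored by automated imaging at 24, 48 or 72 h; proliferation by MTT. Values binned into A–D ranges.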

RPE-Neo or RPE-MYC cells = assay: MTT assay of cellular proliferation (proliferative arrest); format: cell-based; details: read-out: Min. Effective conc. for Proliferative arrest (>50%)
[2] = read-out: Min. Effective conc. for Along with Cell Death
[3] = ≥5%, read-out: Min. Effective conc. for Mitotic Arrest (≥5%)
[4] = ≥5%, read-out: Min. Effective conc. for Polyploidy (≥5%)

Row | SMILES | minimal effective concentration [1, 2] [µM] | minimal effective concentration [1, 3] [µM] | minimal effective concentration [1, 4] [µM] | minimal effective concentration (RPE-Neo or RPE-MYC cells) [µM]
1 | CCOC(C)n1cc(-c2ccc3c(c2)N(Cc2ccc(OC)cc2)C(=O)CC(c2ncc(C)o2)=C3)cn1 (stereo not drawn) [Compound 58, 8-(1-(1-Ethoxyethyl)-1H-pyrazol-4-yl)-1-(4-methoxybenzyl)-4-(5-methyloxazol-2-yl)-1,3-dihydro-2H-benzo[b]azepin-2-one] | 0.001 to 1 | 0.001 to 1 | 0.001 to 1 | 0.001 to 1
2 | COc1ccc(CN2C(=O)CC(c3ncc(C)o3)=Cc3ccc(-c4cnn(CCC#N)c4)cc32)cc1 [Compound 59, 3-(4-(1-(4-Methoxybenzyl)-4-(5-methyloxazol-2-yl)-2-oxo-2,3-dihydro-1H-benzo[b]azepin-8-yl)-1H-pyrazol-1-yl)propanenitrile] | 0.001 to 1 | 0.001 to 1 | 0.001 to 1 | 0.001 to 1
3 | CNC(=O)c1cc(-c2ccc3c(c2)N(Cc2ccc(OC)cc2)C(=O)CC(c2ncc(C)o2)=C3)ccn1 [Compound 60, 4-(1-(4-Methoxybenzyl)-4-(5-methyloxazol-2-yl)-2-oxo-2,3-dihydro-1H-benzo[b]azepin-8-yl)-N-methylpicolinamide] | 0.001 to 1 | 0.001 to 1 | 0.001 to 1 | 0.001 to 1
4 | COc1ccc(CN2C(=O)CC(c3ncc(C)o3)=Cc3ccc(-c4ccn(C)c(=O)c4)cc32)cc1 [Compound 62, 1-(4-Methoxybenzyl)-8-(1-methyl-2-oxo-1,2-dihydropyridin-4-yl)-4-(5-methyloxazol-2-yl)-1,3-dihydro-2H-benzo[b]azepin-2-one] | 0.001 to 1 | 0.001 to 1 | 0.001 to 1 | 0.001 to 1
5 | COc1ccc(CN2C(=O)CC(c3ncc(C)o3)=Cc3ccc(-c4cnn(CCN5CCCC5)c4)cc32)cc1 [Compound 64, 1-(4-methoxybenzyl)-4-(5-methyloxazol-2-yl)-8-(1-(2-(pyrrolidin-1-yl)ethyl)-1H-pyrazol-4-yl)-1,3-dihydro-2H-benzo[b]azepin-2-one] | 0.001 to 1 | 0.001 to 1 | 0.001 to 1 | 0.001 to 1
6 | COc1ccc(CN2C(=O)CC(c3ncc(C)o3)=Cc3ccc(-c4cnn(CCN(C)C)c4)cc32)cc1 [Compound 66, 8-(1-(2-(Dimethylamino)ethyl)-1H-pyrazol-4-yl)-1-(4-methoxybenzyl)-4-(5-methyloxazol-2-yl)-1,3-dihydro-2H-benzo[b]azepin-2-one] | 0.001 to 1 | 0.001 to 1 | 0.001 to 1 | 0.001 to 1
7 | CNC(=O)Cn1cc(-c2ccc3c(c2)N(Cc2ccc(OC)cc2)C(=O)CC(c2ncc(C)o2)=C3)cn1 [Compound 67, 2-(4-(1-(4-Methoxybenzyl)-4-(5-methyloxazol-2-yl)-2-oxo-2,3-dihydro-1H-benzo[b]azepin-8-yl)-1H-pyrazol-1-yl)-N-methylacetamide] | 0.001 to 1 | 0.001 to 1 | 0.001 to 1 | 0.001 to 1
8 | COc1ccc(CN2C(=O)CC(c3ncc(C)o3)=Cc3ccc(-c4cnn(CC#N)c4)cc32)cc1 [Compound 68, 2-(4-(1-(4-methoxybenzyl)-4-(5-methyloxazol-2-yl)-2-oxo-2,3-dihydro-1H-benzo[b]azepin-8-yl)-1H-pyrazol-1-yl)acetonitrile] | 0.001 to 1 | 0.001 to 1 | 0.001 to 1 | 0.001 to 1
9 | COc1ccc(CN2C(=O)CC(c3ncc(C)o3)=Cc3ccc(-c4cnn(CC(=O)O)c4)cc32)cc1 [Compound 69, 2-(4-(1-(4-Methoxybenzyl)-4-(5-methyloxazol-2-yl)-2-oxo-2,3-dihydro-1H-benzo[b]azepin-8-yl)-1H-pyrazol-1-yl)acetic acid] | 1 to 10 | 1 to 10 | 1 to 10 | 1 to 10
10 | COc1ccc(CN2C(=O)CC(c3ncc(C)o3)=Cc3ccc(-c4cnn(C5CNC5)c4)cc32)cc1 [Compound 70, 8-(1-(Azetidin-3-yl)-1H-pyrazol-4-yl)-1-(4-methoxybenzyl)-4-(5-methyloxazol-2-yl)-1,3-dihydro-2H-benzo[b]azepin-2-one] | 0.001 to 1 | 0.001 to 1 | 0.001 to 1 | 0.001 to 1
11 | CCOC(=O)Cn1cc(-c2ccc3c(c2)N(Cc2ccc(OC)cc2)C(=O)CC(c2ncc(C)o2)=C3)cn1 [Compound 71, Ethyl 2-(4-(1-(4-methoxybenzyl)-4-(5-methyloxazol-2-yl)-2-oxo-2,3-dihydro-1H-benzo[b]azepin-8-yl)-1H-pyrazol-1-yl)acetate] | 0.001 to 1 | 0.001 to 1 | 0.001 to 1 | 0.001 to 1
12 | COc1ccc(CN2C(=O)CC(c3ncc(C)o3)=Cc3ccc(-c4cnn(C(C)C(N)=O)c4)cc32)cc1 (stereo not drawn) [Compound 72] | 0.001 to 1 | 0.001 to 1 | 0.001 to 1 | 0.001 to 1
13 | COc1ccc(CN2C(=O)CC(c3ncc(C)o3)=Cc3ccc(-c4cnn(CC(=O)N(C)C)c4)cc32)cc1 [Compound 73, 2-(4-(1-(4-Methoxybenzyl)-4-(5-methyloxazol-2-yl)-2-oxo-2,3-dihydro-1H-benzo[b]azepin-8-yl)-1H-pyrazol-1-yl)-N,N-dimethylacetamide] | 0.001 to 1 | 0.001 to 1 | 0.001 to 1 | 0.001 to 1
14 | CCOC(=O)C(C)n1cc(-c2ccc3c(c2)N(Cc2ccc(OC)cc2)C(=O)CC(c2ncc(C)o2)=C3)cn1 (stereo not drawn) [Compound 74, Ethyl 2-(4-(1-(4-methoxybenzyl)-4-(5-methyloxazol-2-yl)-2-oxo-2,3-dihydro-1H-benzo[b]azepin-8-yl)-1H-pyrazol-1-yl)propanoate] | 0.001 to 1 | 0.001 to 1 | 0.001 to 1 | 0.001 to 1
15 | COc1ccc(CN2C(=O)CC(c3ncc(C)o3)=Cc3ccc(-c4cnn(C(C)C(=O)O)c4)cc32)cc1 (stereo not drawn) [Compound 75, 2-(4-(1-(4-Methoxybenzyl)-4-(5-methyloxazol-2-yl)-2-oxo-2,3-dihydro-1H-benzo[b]azepin-8-yl)-1H-pyrazol-1-yl)propanoic acid] | 1 to 10 | 1 to 10 | 1 to 10 | 1 to 10
16 | COc1ccc(CN2C(=O)CC(c3ncc(C)o3)=Cc3ccc(-c4cnn(C(C)(C)C(N)=O)c4)cc32)cc1 [Compound 76, 2-(4-(1-(4-Methoxybenzyl)-4-(5-methyloxazol-2-yl)-2-oxo-2,3-dihydro-1H-benzo[b]azepin-8-yl)-1H-pyrazol-1-yl)-2-methylpropanamide] | 0.001 to 1 | 0.001 to 1 | 0.001 to 1 | 0.001 to 1
17 | [2H]C([2H])([2H])OCCCn1cc(-c2ccc3c(c2)N(Cc2ccc(OC)cc2)C(=O)CC(c2ncc(C)o2)=C3)cn1 [Compound 77, 8-(1-(3-(Methoxy-d3)propyl)-1H-pyrazol-4-yl)-1-(4-methoxybenzyl)-4-(5-methyloxazol-2-yl)-1,3-dihydro-2H-benzo[b]azepin-2-one] | 0.001 to 1 | 0.001 to 1 | 0.001 to 1 | 0.001 to 1
18 | COCCOCCn1cc(-c2ccc3c(c2)N(Cc2ccc(OC)cc2)C(=O)CC(c2ncc(C)o2)=C3)cn1 [Compound 78, 1-(4-methoxybenzyl)-8-(1-(2-(2-methoxyethoxy)ethyl)-1H-pyrazol-4-yl)-4-(5-methyloxazol-2-yl)-1,3-dihydro-2H-benzo[b]azepin-2-one] | 0.001 to 1 | 0.001 to 1 | 0.001 to 1 | 0.001 to 1
19 | COCCCCn1cc(-c2ccc3c(c2)N(Cc2ccc(OC)cc2)C(=O)CC(c2ncc(C)o2)=C3)cn1 [Compound 79, 1-(4-methoxybenzyl)-8-(1-(4-methoxybutyl)-1H-pyrazol-4-yl)-4-(5-methyloxazol-2-yl)-1,3-dihydro-2H-benzo[b]azepin-2-one] | 0.001 to 1 | 0.001 to 1 | 0.001 to 1 | 0.001 to 1
20 | CCOCCn1cc(-c2ccc3c(c2)N(Cc2ccc(OC)cc2)C(=O)CC(c2ncc(C)o2)=C3)cn1 [Compound 80, 8-(1-(2-ethoxyethyl)-1H-pyrazol-4-yl)-1-(4-methoxybenzyl)-4-(5-methyloxazol-2-yl)-1,3-dihydro-2H-benzo[b]azepin-2-one] | 0.001 to 1 | 0.001 to 1 | 0.001 to 1 | 0.001 to 1
21 | COc1ccc(CN2C(=O)CC(c3ncc(C)o3)=Cc3ccc(-c4cnn(C(C)=O)c4)cc32)cc1 [Compound 81, 8-(1-Acetyl-1H-pyrazol-4-yl)-1-(4-methoxybenzyl)-4-(5-methyloxazol-2-yl)-1,3-dihydro-2H-benzo[b]azepin-2-one] | 0.001 to 1 | 0.001 to 1 | 0.001 to 1 | 0.001 to 1
